{"source": "patent US7138361B2", "about": "“Herbicidal heterocycles” (E. I. du Pont de Nemours and Company, priority 2000, dated 2006)", "assay_in_all_cases": "Test C preemergence", "type_in_all_cases": "in vivo", "key": {"Nightshade": {"tested_on": "Nightshade", "settings": "scale 0 to 100, 0 no effect, 100 complete control"}, "Sunflower [1]": {"tested_on": "Sunflower", "settings": "Rate 125 g/ha; scale 0 to 100, 0 no effect, 100 complete control"}, "[2]": {"tested_on": "Surinam grass (Brachiaria decumbens)", "settings": "for Plant response rating, Surinam grass: scale 0 to 100, 0 no effect, 100 complete control; for Plant response rating (0 to 100), Surinam grass: preemergence, visual evaluation after 12 to 14 days", "how_it_was_run": "(§1)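 Compounds in non-phytotoxic solvent with surfactant applied preemergence to planted seeds and postemergence to plants at 1- to 4-leaf stage (2–18 cm). Kept in greenhouse 12–14 days, then visually rated against controls on a 0 (no effect) to 100 (complete control) scale.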"}, "[3]": {"tested_on": "bermudagrass (Cynodon dactylon)", "settings": "for Plant response rating, Bermudagrass: scale 0 to 100, 0 no effect, 100 complete control; for Plant response rating (0 to 100 where 0 is no effect and 100 is complete control), Bermudagrass: preemergence, visual evaluation after 12 to 14 days", "how_it_was_run": "as §1"}, "[4]": {"tested_on": "cocklebur (Xanthium strumarium)", "settings": "for Plant response rating, Cocklebur: scale 0 to 100, 0 no effect, 100 complete control; for Plant response rating (0 to 100), Cocklebur: preemergence, visual evaluation after 12 to 14 days", "how_it_was_run": "as §1"}, "[5]": {"tested_on": "common ragweed (Ambrosia elatior)", "settings": "for Plant response rating, Ragweed, Common: scale 0 to 100, 0 no effect, 100 complete control", "how_it_was_run": "as §1"}, "corn (Zea mays)": {"tested_on": "corn (Zea mays)", "settings": "for Plant response rating, Corn: scale 0 to 100, 0 no effect, 100 complete control; for Plant response rating (0 to 100), Corn: preemergence, visual evaluation after 12 to 14 days", "how_it_was_run": "as §1"}, "[6]": {"tested_on": "crabgrass (Digitaria sanguinalis)", "settings": "for Plant response rating, Crabgrass: scale 0 to 100, 0 no effect, 100 complete control; for Plant response rating (0 to 100), Crabgrass: preemergence, visual evaluation after 12 to 14 days", "how_it_was_run": "as §1"}, "[7]": {"tested_on": "giant foxtail (Setaria faberii)", "settings": "for Plant response rating, Foxtail, Giant: scale 0 to 100, 0 no effect, 100 complete control; for Plant response rating (0 to 100), Foxtail, Giant: preemergence, visual evaluation after 12 to 14 days", "how_it_was_run": "as §1"}, "[8]": {"tested_on": "goosegrass (Eleusine indica)", "settings": "for Plant response rating, Goosegrass: scale 0 to 100, 0 no effect, 100 complete control; for Plant response rating (0 to 100), Goosegrass: preemergence, visual evaluation after 12 to 14 days", "how_it_was_run": "as §1"}, "[9]": {"tested_on": "johnsongrass (Sorghum halepense)", "settings": "for Plant response rating, Johnsongrass: scale 0 to 100, 0 no effect, 100 complete control; for Plant response rating (0 to 100), Johnsongrass: preemergence, visual evaluation after 12 to 14 days", "how_it_was_run": "as §1"}, "kochia (Kochia scoparia)": {"tested_on": "kochia (Kochia scoparia)", "settings": "for Plant response rating, Kochia: scale 0 to 100, 0 no effect, 100 complete control; for Plant response rating (0 to 100), Kochia: preemergence, visual evaluation after 12 to 14 days", "how_it_was_run": "as §1"}, "[10]": {"tested_on": "lambsquarters (Chenopodium album)", "settings": "for Plant response rating, Lambsquarters: scale 0 to 100, 0 no effect, 100 complete control", "how_it_was_run": "as §1"}, "[11]": {"tested_on": "morningglory (Ipomoea hederacea)", "settings": "for Plant response rating, Morningglory: scale 0 to 100, 0 no effect, 100 complete control", "how_it_was_run": "as §1"}, "[12]": {"tested_on": "pigweed (Amaranthus retroflexus)", "settings": "for Plant response rating, Pigweed: scale 0 to 100, 0 no effect, 100 complete control", "how_it_was_run": "as §1"}, "soybean (Glycine max)": {"tested_on": "soybean (Glycine max)", "settings": "for Plant response rating, Soybean: scale 0 to 100, 0 no effect, 100 complete control", "how_it_was_run": "as §1"}, "[13]": {"tested_on": "velvetleaf (Abutilon theophrasti)", "settings": "for Plant response rating, Velvetleaf: scale 0 to 100, 0 no effect, 100 complete control", "how_it_was_run": "as §1"}, "[14]": {"tested_on": "woolly cupgrass (Eriochloa villosa)", "settings": "for Plant response rating, Cupgrass, Woolly: scale 0 to 100, 0 no effect, 100 complete control; for Plant response rating (0 to 100), Cupgrass, Woolly: preemergence, visual evaluation after 12 to 14 days", "how_it_was_run": "as §1"}, "[15]": {"tested_on": "yellow nutsedge (Cyperus esculentus)", "settings": "for Plant response rating, Nutsedge: scale 0 to 100, 0 no effect, 100 complete control", "how_it_was_run": "as §1"}, "Sunflower [16]": {"tested_on": "Sunflower", "settings": "Rate 250 g/ha, scale 0 to 100, 0 no effect, 100 complete control"}, "[17]": {"settings": "preemergence, Rate 500 g/ha, visual evaluation after 12 to 14 days"}}}
{"smiles": "CCC(C)c1ccn(C2CCN(c3ccc(C)c(OC)c3)C2=O)n1", "note": "(stereo not drawn) [Compound 80]", "values": [{"measurement": "Plant response rating, Nightshade", "setting": "Nightshade; Rate 62 g/ha", "result": 90}, {"measurement": "Plant response rating, Nightshade", "setting": "Nightshade; Rate 125 g/ha", "result": 100}, {"measurement": "Plant response rating, Nightshade", "setting": "Nightshade; Rate 250 g/ha", "result": 100}, {"measurement": "Plant response rating, Sunflower", "setting": "Sunflower [1]", "result": 30}, {"measurement": "Plant response rating, Surinam grass", "setting": "[2]; Rate 62 g/ha", "result": 20}, {"measurement": "Plant response rating, Surinam grass", "setting": "[2]; Rate 125 g/ha", "result": 70}, {"measurement": "Plant response rating (0 to 100), Surinam grass", "setting": "[2]; Rate 250 g/ha", "result": 100}, {"measurement": "Plant response rating (0 to 100), Surinam grass", "setting": "[2]; Rate 500 g/ha", "result": 100}, {"measurement": "Plant response rating, Bermudagrass", "setting": "[3]; Rate 62 g/ha", "result": 100}, {"measurement": "Plant response rating, Bermudagrass", "setting": "[3]; Rate 125 g/ha", "result": 100}, {"measurement": "Plant response rating (0 to 100 where 0 is no effect and 100 is complete control), Bermudagrass", "setting": "[3]; Rate 250 g/ha", "result": 100}, {"measurement": "Plant response rating (0 to 100 where 0 is no effect and 100 is complete control), Bermudagrass", "setting": "[3]; Rate 500 g/ha", "result": 100}, {"measurement": "Plant response rating, Cocklebur", "setting": "[4]; Rate 62 g/ha", "result": 0}, {"measurement": "Plant response rating, Cocklebur", "setting": "[4]; Rate 125 g/ha", "result": 50}, {"measurement": "Plant response rating (0 to 100), Cocklebur", "setting": "[4]; Rate 250 g/ha", "result": 0}, {"measurement": "Plant response rating (0 to 100), Cocklebur", "setting": "[4]; Rate 500 g/ha", "result": 100}, {"measurement": "Plant response rating, Ragweed, Common", "setting": "[5]; Rate 125 g/ha", "result": 100}, {"measurement": "Plant response rating (0 to 100), Ragweed, Common", "setting": "[5]; [17]", "result": 100}, {"measurement": "Plant response rating, Ragweed, Common", "setting": "[5]; preemergence, Rate 250 g/ha", "result": 100}, {"measurement": "Plant response rating, Corn", "setting": "corn (Zea mays); Rate 62 g/ha", "result": 0}, {"measurement": "Plant response rating, Corn", "setting": "corn (Zea mays); Rate 125 g/ha", "result": 30}, {"measurement": "Plant response rating (0 to 100), Corn", "setting": "corn (Zea mays); Rate 250 g/ha", "result": 0}, {"measurement": "Plant response rating (0 to 100), Corn", "setting": "corn (Zea mays); Rate 500 g/ha", "result": 60}, {"measurement": "Plant response rating, Crabgrass", "setting": "[6]; Rate 62 g/ha", "result": 100}, {"measurement": "Plant response rating, Crabgrass", "setting": "[6]; Rate 125 g/ha", "result": 100}, {"measurement": "Plant response rating (0 to 100), Crabgrass", "setting": "[6]; Rate 250 g/ha", "result": 100}, {"measurement": "Plant response rating (0 to 100), Crabgrass", "setting": "[6]; Rate 500 g/ha", "result": 100}, {"measurement": "Plant response rating, Foxtail, Giant", "setting": "[7]; Rate 62 g/ha", "result": 0}, {"measurement": "Plant response rating, Foxtail, Giant", "setting": "[7]; Rate 125 g/ha", "result": 100}, {"measurement": "Plant response rating (0 to 100), Foxtail, Giant", "setting": "[7]; Rate 250 g/ha", "result": 40}, {"measurement": "Plant response rating (0 to 100), Foxtail, Giant", "setting": "[7]; Rate 500 g/ha", "result": 50}, {"measurement": "Plant response rating, Goosegrass", "setting": "[8]; Rate 62 g/ha", "result": 100}, {"measurement": "Plant response rating, Goosegrass", "setting": "[8]; Rate 125 g/ha", "result": 100}, {"measurement": "Plant response rating (0 to 100), Goosegrass", "setting": "[8]; Rate 250 g/ha", "result": 100}, {"measurement": "Plant response rating (0 to 100), Goosegrass", "setting": "[8]; Rate 500 g/ha", "result": 100}, {"measurement": "Plant response rating, Johnsongrass", "setting": "[9]; Rate 62 g/ha", "result": 20}, {"measurement": "Plant response rating, Johnsongrass", "setting": "[9]; Rate 125 g/ha", "result": 60}, {"measurement": "Plant response rating (0 to 100), Johnsongrass", "setting": "[9]; Rate 250 g/ha", "result": 60}, {"measurement": "Plant response rating (0 to 100), Johnsongrass", "setting": "[9]; Rate 500 g/ha", "result": 70}, {"measurement": "Plant response rating, Kochia", "setting": "kochia (Kochia scoparia); Rate 62 g/ha", "result": 100}, {"measurement": "Plant response rating, Kochia", "setting": "kochia (Kochia scoparia); Rate 125 g/ha", "result": 100}, {"measurement": "Plant response rating (0 to 100), Kochia", "setting": "kochia (Kochia scoparia); Rate 250 g/ha", "result": 100}, {"measurement": "Plant response rating (0 to 100), Kochia", "setting": "kochia (Kochia scoparia); Rate 500 g/ha", "result": 100}, {"measurement": "Plant response rating, Lambsquarters", "setting": "[10]; Rate 62 g/ha", "result": 100}, {"measurement": "Plant response rating, Lambsquarters", "setting": "[10]; Rate 125 g/ha", "result": 100}, {"measurement": "Plant response rating (0 to 100), Lambsquarters", "setting": "[10]; [17]", "result": 100}, {"measurement": "Plant response rating, Lambsquarters", "setting": "[10]; preemergence, Rate 250 g/ha", "result": 100}, {"measurement": "Plant response rating, Morningglory", "setting": "[11]; Rate 62 g/ha", "result": 0}, {"measurement": "Plant response rating, Morningglory", "setting": "[11]; Rate 125 g/ha", "result": 20}, {"measurement": "Plant response rating (0 to 100), Morningglory", "setting": "[11]; [17]", "result": 100}, {"measurement": "Plant response rating, Morningglory", "setting": "[11]; preemergence, Rate 250 g/ha", "result": 100}, {"measurement": "Plant response rating, Pigweed", "setting": "[12]; Rate 125 g/ha", "result": 0}, {"measurement": "Plant response rating (0 to 100), Pigweed", "setting": "[12]; [17]", "result": 40}, {"measurement": "Plant response rating, Pigweed", "setting": "[12]; preemergence, Rate 250 g/ha", "result": 0}, {"measurement": "Plant response rating, Soybean", "setting": "soybean (Glycine max); Rate 125 g/ha", "result": 30}, {"measurement": "Plant response rating (0 to 100), Soybean", "setting": "soybean (Glycine max); [17]", "result": 100}, {"measurement": "Plant response rating, Soybean", "setting": "soybean (Glycine max); preemergence, Rate 250 g/ha", "result": 50}, {"measurement": "Plant response rating, Velvetleaf", "setting": "[13]; Rate 125 g/ha", "result": 40}, {"measurement": "Plant response rating (0 to 100), Velvetleaf", "setting": "[13]; [17]", "result": 100}, {"measurement": "Plant response rating, Velvetleaf", "setting": "[13]; preemergence, Rate 250 g/ha", "result": 70}, {"measurement": "Plant response rating, Cupgrass, Woolly", "setting": "[14]; Rate 62 g/ha", "result": 90}, {"measurement": "Plant response rating, Cupgrass, Woolly", "setting": "[14]; Rate 125 g/ha", "result": 100}, {"measurement": "Plant response rating (0 to 100), Cupgrass, Woolly", "setting": "[14]; Rate 250 g/ha", "result": 100}, {"measurement": "Plant response rating (0 to 100), Cupgrass, Woolly", "setting": "[14]; Rate 500 g/ha", "result": 100}, {"measurement": "Plant response rating, Nutsedge", "setting": "[15]; Rate 62 g/ha", "result": 0}, {"measurement": "Plant response rating, Nutsedge", "setting": "[15]; Rate 125 g/ha", "result": 20}, {"measurement": "Plant response rating (0 to 100), Nutsedge", "setting": "[15]; [17]", "result": 0}, {"measurement": "Plant response rating, Nutsedge", "setting": "[15]; preemergence, Rate 250 g/ha", "result": 0}, {"measurement": "Plant response rating, Sunflower", "setting": "Sunflower [16]", "result": 60}]}
